The source of these data is PubChem BioAssay AID1288 (Columbia University Molecular Screening Center, 2008).

A short description of assay [1]: inhibitors of TNFa-induced E-selectin expression, confirmation, imaging, retest plus dose response, cell count (AID 1288). The settings on record: human endothelial cells, TNFa-induced E-selectin, imaging; cell count toxicity; at 10 µM; stronger effect = lower value.
The test system of assay [2] is human endothelial cells, TNFa-induced E-selectin, imaging. Described as above.

Calls of active or inactive are those of the source. The rule behind the calls is not given here. Bounds are passed on as bounds.

Broadly, the IC50 is the concentration at which inhibition is half-maximal. Consider `Cc1cc(C)cc(NC(=O)c2ccc([N+](=O)[O-])o2)c1`, for which the cell count in assay [1] turned out to be 98.3%. Also, in assay [2], the 50% inhibitory concentration (IC50) was 2.11 µM.

For the compound `N#Cc1ccc(-c2cccnc2)nc1SCc1ccc(Cl)c(Cl)c1`, the cell count in assay [1] is 2.48%. Moreover, in assay [2], the IC50 is 2.75 µM.

As to `C=C1C(=O)[C@@]23[C@H](O)C[C@@H]4C(C)(C)CC[C@H](O)[C@@]4(C)[C@@H]2CC[C@@H]1[C@H]3O`, the cell count in assay [1] is 10.1%. In addition, in assay [2], the half-maximal inhibitory concentration (IC50) is 2 µM.

Regarding `O=C(Nc1ccccc1)c1nnsc1S(=O)c1ccc(Cl)cc1` (centres undefined), the cell count in assay [1] is 16.1%. Further, the IC50 in assay [2] is 3.58 µM.

`O=S(=O)(C/C(=C/CO)S(=O)(=O)c1ccccc1)c1ccccc1`: the cell count in assay [1] was found to be 97.8%. Moreover, the IC50 in assay [2] was > 10 µM (inactive).

Consider `O=Cc1s/c(=N\S(=O)(=O)c2ccccc2)n(CCCCl)c1Cl`, for which, in assay [1], the cell count was determined as 108%. Further, the IC50 in assay [2] was > 10 µM (inactive).

In the case of `CN1C2CCC1/C(=C/c1ccccn1)C(=O)/C2=C\c1ccccn1`, the cell count in assay [1] came to 51.6%. For the same compound, in assay [2], the half-inhibitory concentration (IC50) was 2.8 µM.

For the compound `Cc1ccc(-c2nc(NC(=O)c3nn(C)cc3[N+](=O)[O-])sc2C)cc1`, the cell count in assay [1] was 69.6%. Further, the IC50 in assay [2] is 5.25 µM.

For the compound `CCc1c(C)c(C#N)c2nc3ccccc3n2c1Cl`, in assay [1], the cell count was 70%. For the same compound, the IC50 in assay [2] was 1.98 µM.

Regarding `COCCN(CC(=O)NC1CCCCC1)C(=O)/C=C/C(=O)c1ccc(OC)cc1O`, the cell count in assay [1] worked out at 95%. In addition, in assay [2], the IC50 was > 10 µM (inactive).

Consider `O=S1(=O)C=C(Sc2nnc(-c3ccccc3)o2)c2ccccc21`, for which the cell count in assay [1] was 72.7%. In addition, the IC50 in assay [2] is > 10 µM (inactive).

Consider `COc1ccc(Oc2cc(NC(=O)c3nn(C)cc3[N+](=O)[O-])cc([N+](=O)[O-])c2)cc1`, for which, in assay [1], the cell count came out at 23.9%. In addition, the half-inhibitory concentration (IC50) in assay [2] was 3.5 µM.

As to `O=S(=O)(/C(=C/c1ccc(C(F)(F)F)cc1)c1nc2ccccc2[nH]1)c1ccccc1`, the cell count in assay [1] worked out at 104%. Further, the IC50 in assay [2] was > 10 µM (inactive).

As to `Cc1ccc2nc3cc([N+](=O)[O-])cc([N+](=O)[O-])c3cc2c1`, in assay [1], the cell count is 101%. For the same compound, in assay [2], the IC50 was > 10 µM (inactive).

Take `CS(=O)(=O)c1ccc(S(=O)CC(=O)OCc2ccccc2)c([N+](=O)[O-])c1` (centres undefined): the cell count in assay [1] is 98.7%. The IC50 in assay [2] was > 10 µM (inactive).

Take `C#CC(=O)N(c1cc(OC)ccc1OC)C(C(=O)NC1CCCC1)c1cccs1` (centres undefined): the cell count in assay [1] turned out to be 33.9%. In assay [2], the IC50 is 9.61 µM.

Consider `COC(=O)C1CN(C#N)N(c2ccc(Cl)cc2)C12c1ccccc1-c1ccccc12` (centres undefined), for which the cell count in assay [1] was 113%. The IC50 in assay [2] is > 10 µM (inactive).

Regarding `COCC(C)NC(=O)CCS(=O)(=O)c1nc(-c2ccc(OC)cc2)cc(C(F)(F)F)n1` (centres undefined), the cell count in assay [1] amounted to 83%. Also, the IC50 in assay [2] was > 10 µM (inactive).

On to `N#CC(C#N)=C1C=CC=CN1/C(=C\c1ccccc1Cl)C(=O)c1ccccc1`, for which, in assay [1], the cell count was found to be 68.3%. For the same compound, the 50% inhibitory concentration (IC50) in assay [2] is 4.99 µM.

Regarding `CCN1C/C(=C/c2ccc(OC)c(O)c2)C(=O)/C(=C/c2ccc(OC)c(O)c2)C1`, in assay [1], the cell count amounted to 15.1%. Further, the IC50 in assay [2] is 3.01 µM.

As to `Cc1ccc2nc(-c3ccc(NC(=O)CCN4C(=O)c5ccccc5C4=O)cc3)sc2c1`, the cell count in assay [1] worked out at 107%. Moreover, the IC50 in assay [2] is > 10 µM (inactive).

As to `O=C(OCn1ncc(Cl)c(Cl)c1=O)c1cccc(C(F)(F)F)c1`, in assay [1], the cell count amounted to 102%. For the same compound, the IC50 in assay [2] is > 10 µM (inactive).

For the compound `COc1ccc(NC(=O)/C(Cl)=C(/Cl)S(=O)Cc2ccccc2Cl)cn1` (centres undefined), the cell count in assay [1] stood at 99.9%. Moreover, the half-inhibitory concentration (IC50) in assay [2] is 5.39 µM.

With `O=C(Cn1ncc(Cl)c(Cl)c1=O)N1CCc2ccccc21`, the cell count in assay [1] was found to be 40%. Moreover, the half-inhibitory concentration (IC50) in assay [2] is 2.48 µM.

With `CCOC(=O)CS(=O)(=O)c1nc(-c2ccc(F)cc2)cc(C(F)(F)F)n1`, the cell count in assay [1] turned out to be 98.3%. In addition, in assay [2], the IC50 is > 10 µM (inactive).

Regarding `Cc1ccc(C(=O)OCn2ncc(Cl)c(Cl)c2=O)cc1`, the cell count in assay [1] amounted to 101%. Further, in assay [2], the IC50 is > 10 µM (inactive).

As for `Cc1c(Nc2cc(Cl)c3nonc3c2[N+](=O)[O-])c(=O)n(-c2ccccc2)n1C`, in assay [1], the cell count turned out to be 66.3%. Besides, the half-inhibitory concentration (IC50) in assay [2] was 6.67 µM.

`COc1ccc(CS(=O)(=O)/C(Cl)=C(/Cl)C(=O)Nc2ccc(OC)nc2)cc1`: in assay [1], the cell count stood at 105%. Besides, the IC50 in assay [2] is > 10 µM (inactive).

In the case of `Cc1ccccc1NC1=C/C(=N\S(=O)(=O)c2cccs2)c2ccccc2C1=O`, in assay [1], the cell count is 107%. Moreover, in assay [2], the IC50 was > 10 µM (inactive).

Take `CN(C)C(=O)Oc1c(Cl)cc(Cl)c2cccnc12`: the cell count in assay [1] amounted to 20.8%. In addition, the IC50 in assay [2] is 2.55 µM.

In the case of `C=CCSc1nc2ccccc2n1C(=O)/C=C/c1cc(OC)c(OC)c(OC)c1`, in assay [1], the cell count was 24.8%. The 50% inhibitory concentration (IC50) in assay [2] was 2.17 µM.

With `CC1C/C(=C/c2ccncc2)C(=O)/C(=C/c2ccncc2)C1` (centres undefined), the cell count in assay [1] is 84.9%. Besides, the IC50 in assay [2] was 4.92 µM.
